From the supplement of paper PMC10307832

Legend:
Experiment in all cases: relative viability (nuclei count vs DMSO), 5 days (fraction); higher = more cells survive
[1] = compound: Cn1cnc2c(F)c(Nc3ccc(Br)cc3Cl)c(C(=O)NOCCO)cc21 [Selumetinib] + N=C(N)NC(=N)NCCc1ccccc1 [Phenformin] (partner 250 µM)
Procedure, shortened: (§1)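 Five library-drug doses in √10 steps were combined with a fixed anchor-drug dose, or a single drug was given alone, by pin tool to lung cancer cell lines in 1536-well plates the day after seeding. Nuclei were stained and counted after 5 days. Relative viability is the nuclei count in treated wells over that in vehicle wells, taken as the median of duplicate plates.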

[2] = compound: Cn1cnc2c(F)c(Nc3ccc(Br)cc3Cl)c(C(=O)NOCCO)cc21 [Selumetinib]
Procedure, shortened: (§2)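 Five library-drug doses, separated by factors of √10, were pinned into 1536-well plates holding lung cancer cell lines after an overnight stay at 37 °C. Cells were fixed, permeabilised and Hoechst-stained in one step after 5 days without medium change, then imaged at 4×. Viability compares treated-well with vehicle-well nuclei, counted in MetaXpress, as a median across plates. Passing plates had control CV below 25% and at least one doubling.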

[3] = compound: CC1(C)CCC(CN2CCN(c3ccc(C(=O)NS(=O)(=O)c4ccc(NCC5CCOCC5)c([N+](=O)[O-])c4)c(Oc4cnc5[nH]ccc5c4)c3)CC2)=C(c2ccc(Cl)cc2)C1 [Venetoclax]
Procedure, shortened: as §2

[4] = compound: CC1(C)CCC(CN2CCN(c3ccc(C(=O)NS(=O)(=O)c4ccc(NCC5CCOCC5)c([N+](=O)[O-])c4)c(Oc4cnc5[nH]ccc5c4)c3)CC2)=C(c2ccc(Cl)cc2)C1 [Venetoclax] + CC1(C)CCC(c2ccc(Cl)cc2)=C(CN2CCN(c3ccc(C(=O)NS(=O)(=O)c4ccc(N[C@H](CCN5CCOCC5)CSc5ccccc5)c(S(=O)(=O)C(F)(F)F)c4)cc3)CC2)C1 [Navitoclax] (partner 0.5 µM)
Procedure, shortened: as §1

Row | Cell Line | relative viability ([1]; first compound 0.02 µM) | relative viability ([1]; first compound 0.06325 µM) | relative viability ([1]; first compound 0.2 µM) | relative viability ([1]; first compound 0.6325 µM) | relative viability ([2]; 0.02 µM) | relative viability ([2]; 0.06325 µM) | relative viability ([2]; 0.2 µM) | relative viability ([2]; 0.6325 µM) | relative viability ([3]; 0.01 µM) | relative viability ([3]; 0.03162 µM) | relative viability ([3]; 0.1 µM) | relative viability ([3]; 0.3162 µM) | relative viability ([3]; 1 µM) | relative viability ([4]; first compound 0.01 µM) | relative viability ([4]; first compound 0.03162 µM) | relative viability ([4]; first compound 0.1 µM) | relative viability ([4]; first compound 0.3162 µM) | relative viability ([4]; first compound 1 µM)
1 | LCLC-103H | 0.329 | 0.326 | 0.293 | 0.337 | 0.916 | 0.897 | 0.87 | 0.84 | 1.06 | 0.999 | 1.04 | 1.01 | 1 | – | – | – | – | –
2 | CAL-12T | 0.469 | 0.392 | 0.393 | 0.353 | 0.88 | 0.794 | 0.781 | 0.737 | 0.944 | 1.05 | 0.923 | 0.956 | 0.886 | 1.4 | 1.22 | 0.956 | 1.15 | 1.1
3 | SW 1573 | 0.291 | 0.275 | 0.276 | 0.212 | 0.882 | 0.814 | 0.754 | 0.833 | 0.974 | 0.985 | 0.911 | 0.969 | 0.877 | 0.877 | 1.02 | 0.971 | 1.03 | 0.997
4 | NCI-H1666 | 0.506 | 0.534 | 0.569 | 0.565 | 0.917 | 0.94 | 0.878 | 0.875 | 0.915 | 1.02 | 0.966 | 0.933 | 1.01 | 0.616 | 0.986 | 0.978 | 0.971 | 0.901
5 | BEN | 0.281 | 0.315 | 0.252 | 0.257 | 0.934 | 1.02 | 0.863 | 0.938 | 1.03 | 1.09 | 0.887 | 0.999 | 0.941 | 0.36 | 0.0558 | 0.072 | 0.0753 | 0.0581
6 | EMC-BAC-2 | 0.559 | 0.583 | 0.552 | 0.537 | 1.38 | 1.16 | 1.06 | 1.13 | 0.977 | 1.14 | 0.945 | 1.15 | 0.96 | 1.09 | 1.17 | 1.14 | 1.15 | 1.07
7 | NCI-H1299 | – | – | – | – | 1.04 | 1.03 | 1.02 | 0.889 | 1.02 | 1.03 | 1.01 | 1.01 | 0.949 | 1.07 | 1.04 | 1.01 | 1.01 | 1
8 | ABC-1 | 0.228 | 0.231 | 0.234 | 0.25 | 0.885 | 0.757 | 0.875 | 0.841 | 1.11 | 0.981 | 0.974 | 0.938 | 0.897 | – | – | – | – | –
9 | EBC-1 | – | – | – | – | 0.959 | 0.828 | 0.759 | 0.523 | 0.961 | 1.05 | 0.961 | 0.926 | 0.894 | 0.389 | 0.455 | 0.479 | 0.443 | 0.47
10 | NCI-H2342 | 0.623 | 0.618 | 0.564 | 0.722 | 0.888 | 0.896 | 0.943 | 0.946 | 1 | 0.984 | 1.03 | 1 | 0.967 | – | – | – | – | –
11 | NCI-H650 | 0.521 | 0.407 | 0.551 | 0.54 | 1.1 | 1.09 | 1.39 | 1.26 | 0.934 | 1.05 | 0.876 | 1.1 | 0.855 | – | – | – | – | –
12 | NCI-H661 | 0.261 | 0.291 | 0.272 | 0.246 | 1.01 | 0.954 | 0.979 | 1 | 0.964 | 1.07 | 0.949 | 0.995 | 0.966 | – | – | – | – | –
13 | NCI-H358 | 0.211 | 0.175 | 0.183 | 0.158 | 0.618 | 0.456 | 0.373 | 0.31 | 1.04 | 0.916 | 0.898 | 0.975 | 0.863 | – | – | – | – | –
14 | SW 900 | 0.603 | 0.573 | 0.416 | 0.569 | 0.805 | 0.776 | 0.79 | 0.809 | 0.795 | 0.954 | 0.716 | 0.878 | 0.836 | – | – | – | – | –
15 | NCI-H1703 | – | – | – | – | 0.974 | 0.816 | 0.9 | 0.909 | 0.869 | 0.953 | 0.917 | 0.99 | 0.788 | 1.33 | 1.24 | 0.969 | 1.01 | 1.04
16 | NCI-H1563 | 0.688 | 0.68 | 0.627 | 0.593 | 0.957 | 0.868 | 0.981 | 0.91 | 0.999 | 0.963 | 0.971 | 1.04 | 1.07 | – | – | – | – | –
17 | IA-LM | – | – | – | – | 0.776 | 0.442 | 0.246 | 0.186 | 0.813 | 1.05 | 0.886 | 0.915 | 0.886 | 0.84 | 0.899 | 0.807 | 0.763 | 0.662
18 | NCI-H1648 | – | – | – | – | 0.729 | 0.961 | 0.904 | 0.797 | 0.661 | 0.966 | 0.94 | 0.822 | 0.791 | – | – | – | – | –
